Measurements as given in patent US9393232B2 (BeiGene, Ltd., priority 2013, dated 2016).
pIC50: −log10 of the molar value.

target: Recombinant human BRD4(1-477) (Homo sapiens (Human), UniProt O60885); experiment: BRD4 TR-FRET biochemical IC50 assay; format: binding; details: BRD4 IC50, TR-FRET, tetra-acetylated histone peptide

Cc1noc(C)c1-c1ccc2c(c1)C(O)(c1ccsc1)C(=O)N2 (single isomer, unassigned) [Compound 4.1a, 5-(3,5-Dimethylisoxazol-4-yl)-3-hydroxy-3-(thiophen-3-yl)indolin-2-one] was tested, and the pIC50 was 5.31.

same assay, conditions: TR-FRET, tetra-acetylated histone peptide; read-out: BRD4 IC50

Going from Cc1noc(C)c1-c1ccc2c(c1)C(O)(c1ccccc1)C(=O)N2 (single isomer, unassigned) [Compound 1.1b, 5-(3,5-dimethylisoxazol-4-yl)-3-hydroxy-3-phenylindolin-2-one] to CC(=O)OC1(c2ccccc2)C(=O)Nc2ccc(-c3c(C)noc3C)cc21 (centres unmarked) [Compound 1.34, 5-(3,5-Dimethylisoxazol-4-yl)-2-oxo-3-phenylindolin-3-yl acetate], the pIC50 rises from 5.15 to 6.82 (1.67 log units). The second is the more potent here.

Compared with Cc1noc(C)c1-c1ccc2c(c1)C(O)(C1CCCCC1=O)C(=O)N2 (single isomer, unassigned) [Compound 1.30b, 5-(3,5-Dimethylisoxazol-4-yl)-3-hydroxy-3-(2-oxocyclohexyl)indolin-2-one], Cc1noc(C)c1-c1ccc2c(c1)C(N)(C1CCCCC1)C(=O)N2 (single isomer, unassigned) [Compound 2.37b, 3-Amino-3-cyclohexyl-5-(3,5-dimethylisoxazol-4-yl)indolin-2-one] is 0.23 log units lower in pIC50: 6.19 for the first, 5.96 for the second. The first is the more potent here.

First: Cc1noc(C)c1-c1ccc2c(c1)C(N[C@@H](CO)c1ccccc1)(c1ccccc1)C(=O)N2 (single isomer, unassigned) [Compound 2.7a]
Second: Cc1noc(C)c1-c1ccc2c(c1)C(N[C@H](CO)c1ccccc1)(c1ccccc1)C(=O)N2 (single isomer, unassigned) [Compound 2.8a]
The pIC50 of the first is lower: less than 5.00 for the first, 6.29 for the second.

Compared with Cc1noc(C)c1-c1ccc2c(c1)C(N[C@@H](CO)c1ccccc1)(c1ccccc1)C(=O)N2 (single isomer, unassigned) [Compound 2.7b], Cc1noc(C)c1-c1ccc2c(c1)C(N[C@H](CO)c1ccccc1)(c1ccccc1)C(=O)N2 (single isomer, unassigned) [Compound 2.8b] is 0.43 log units lower in pIC50: 6.09 for the first, 5.66 for the second. The first is the more potent here.

Cc1noc(C)c1-c1ccc2c(c1)C(N[C@@H](CO)C(C)C)(c1ccccc1)C(=O)N2 (single isomer, unassigned) [Compound 2.11a] and Cc1noc(C)c1-c1ccc2c(c1)C(N[C@H](CO)C(C)C)(c1ccccc1)C(=O)N2 (single isomer, unassigned) [Compound 2.12b] are within 0.2 log units of each other in pIC50: 5.44 for the first, 5.47 for the second.

Cc1noc(C)c1-c1ccc2c(c1)C(NC[C@@H](C)O)(c1ccccc1)C(=O)N2 (single isomer, unassigned) [Compound 2.13a] and Cc1noc(C)c1-c1ccc2c(c1)C(NC[C@H](C)O)(c1ccccc1)C(=O)N2 (single isomer, unassigned) [Compound 2.14b] are within 0.2 log units of each other in pIC50: 6.15 for the first, 6.21 for the second.

Going from Cc1noc(C)c1-c1ccc2c(c1)C(N[C@H](CO)C(C)C)(C1CCCCC1)C(=O)N2 (single isomer, unassigned) [Compound 2.19a] to Cc1noc(C)c1-c1ccc2c(c1)C(N[C@@H](CO)C(C)C)(C1CCCCC1)C(=O)N2 (single isomer, unassigned) [Compound 2.20a], the pIC50 rises from less than 5.00 to 5.29. The second is the more potent here.

Compared with COC(=O)[C@@H]1C[C@@H](O)CN1C1(c2ccccc2)C(=O)Nc2ccc(-c3c(C)noc3C)cc21 (single isomer, unassigned) [Compound 2.50b], Cc1noc(C)c1-c1ccc2c(c1)C(c1ccccc1)(N1C[C@@H](O)C[C@H]1CO)C(=O)N2 (single isomer, unassigned) [Compound 2.51a] is 0.22 log units lower in pIC50: 6.07 for the first, 5.85 for the second. The first is the more potent here.

Compared with Cc1noc(C)c1-c1ccc2c(c1)C(c1ccccc1)(N1C[C@@H](O)C[C@H]1CO)C(=O)N2 (single isomer, unassigned) [Compound 2.51b], Cc1noc(C)c1-c1ccc2c(c1)C(c1ccccc1)(N1CC[C@@H](N)C1)C(=O)N2 (stereo partly drawn) [Compound 2.42, 3-((R)-3-aminopyrrolidin-1-yl)-5-(3,5-dimethylisoxazol-4-yl)-3-phenylindolin-2-one] is 0.40 log units higher in pIC50: 7.17 for the first, 7.57 for the second.

First: Cc1noc(C)c1-c1ccc2c(c1)C(N[C@H](CO)Cc1cnc[nH]1)(c1ccccc1)C(=O)N2 (single isomer, unassigned) [Compound 2.57a, 5-(3,5-Dimethylisoxazol-4-yl)-3-((s)-1-hydroxy-3-(1h-imidazol-5-yl)propan-2-ylamino)-3-phenylindolin-2-one]
Second: Cc1noc(C)c1-c1ccc2c(c1)C(O)(C#Cc1ccccc1)C(=O)N2 (centres unmarked) [Compound 1.12, 5-(3,5-dimethylisoxazol-4-yl)-3-hydroxy-3-(phenylethynyl)indolin-2-one]
The pIC50 of the first is 0.75 log units higher: 6.39 for the first, 5.64 for the second. The first is the more potent here.

Going from Cc1noc(C)c1-c1ccc2c(c1)C(N[C@H](CO)Cc1cnc[nH]1)(c1ccccc1)C(=O)N2 (single isomer, unassigned) [Compound 2.57b, 5-(3,5-Dimethylisoxazol-4-yl)-3-((s)-1-hydroxy-3-(1h-imidazol-5-yl)propan-2-ylamino)-3-phenylindolin-2-one] to Cc1noc(C)c1-c1ccc2c(c1)C(O)(CCCc1ccccc1)C(=O)N2 (centres unmarked) [Compound 1.29, 5-(3,5-dimethylisoxazol-4-yl)-3-hydroxy-3-(3-phenylpropyl)indolin-2-one], the pIC50 falls from 7.39 to 5.80 (1.59 log units).

Going from Cc1noc(C)c1-c1ccc2c(c1)C(N)(c1ccc(F)cc1)C(=O)N2 (single isomer, unassigned) [Compound 2.59a, 3-amino-5-(3,5-dimethylisoxazol-4-yl)-3-(4-fluorophenyl)indolin-2-one] to Cc1noc(C)c1-c1ccc2c(c1)C(O)(c1cccc3ccccc13)C(=O)N2 (centres unmarked) [Compound 1.11, 5-(3,5-dimethylisoxazol-4-yl)-3-hydroxy-3-(naphthalen-1-yl)indolin-2-one], the pIC50 rises from 5.39 to 5.60 (0.21 log units).

Going from Cc1noc(C)c1-c1ccc2c(c1)C(N)(c1ccc(F)cc1)C(=O)N2 (single isomer, unassigned) [Compound 2.59b, 3-amino-5-(3,5-dimethylisoxazol-4-yl)-3-(4-fluorophenyl)indolin-2-one] to COc1ccc(C2(O)C(=O)Nc3ccc(-c4c(C)noc4C)cc32)cc1OC (centres unmarked) [Compound 1.10, 3-(3,4-dimethoxyphenyl)-5-(3,5-dimethylisoxazol-4-yl)-3-hydroxyindolin-2-one], the pIC50 falls from 7.44 to 5.89 (1.55 log units). The first is the more potent here.

Going from CCC1(O)C(=O)Nc2ccc(-c3c(C)noc3C)cc21 (centres unmarked) [Compound 1.20, 5-(3,5-dimethylisoxazol-4-yl)-3-ethyl-3-hydroxyindolin-2-one] to C=C(C)CC1(O)C(=O)Nc2ccc(-c3c(C)noc3C)cc21 (centres unmarked) [Compound 1.28, 5-(3,5-dimethylisoxazol-4-yl)-3-hydroxy-2-(2-methylallyl)indolin-2-one], the pIC50 falls from 5.64 to 5.41 (0.23 log units). The first is the more potent here.

Compared with C#CC1(O)C(=O)Nc2ccc(-c3c(C)noc3C)cc21 (centres unmarked) [Compound 1.21, 5-(3,5-dimethylisoxazol-4-yl)-3-ethynyl-3-hydroxyindolin-2-one], Cc1noc(C)c1-c1ccc2c(c1)C(O)(C(C)C)C(=O)N2 (centres unmarked) [Compound 1.27, 5-(3,5-dimethylisoxazol-4-yl)-3-hydroxy-3-isopropylindolin-2-one] is 0.37 log units lower in pIC50: 5.92 for the first, 5.55 for the second.

Compared with Cc1noc(C)c1-c1ccc2c(c1)C(O)(C(C)(C)C)C(=O)N2 (centres unmarked) [Compound 1.26, 3-tert-butyl-5-(3,5-dimethylisoxazol-4-yl)-3-hydroxyindolin-2-one], Cc1noc(C)c1-c1ccc2c(c1)C(N)(C1CCCCC1)C(=O)N2 (centres unmarked) [Compound 2.37, 3-amino-3-cyclohexyl-5-(3,5-dimethylisoxazol-4-yl)indolin-2-one] is 1.54 log units higher in pIC50: 5.49 for the first, 7.03 for the second. The second is the more potent here.

First: Cc1noc(C)c1-c1ccc2c(c1)C(NCCC(C)C)(C1CCCCC1)C(=O)N2 (centres unmarked) [Compound 2.25, 3-cyclohexyl-5-(3,5-dimethylisoxazol-4-yl)-3-(isopentylamino)indolin-2-one]
Second: Cc1noc(C)c1-c1ccc2c(c1)[C@@](N)(C1CCCCC1)C(=O)N2 [Compound 2.37a, (S)-3-amino-3-cyclohexyl-5-(3,5-dimethylisoxazol-4-yl)indolin-2-one]
The pIC50 of the first is 1.84 log units lower: 5.43 for the first, 7.27 for the second. The second is the more potent here.

Cc1noc(C)c1-c1ccc2c(c1)C(C1CCCCC1)(N1CCC[C@@H](O)C1)C(=O)N2 (stereo partly drawn) [Compound 2.30, 3-cyclohexyl-5-(3,5-dimethylisoxazol-4-yl)-3-((R)-3-hydroxypiperidin-1-yl)indolin-2-one] and Cc1noc(C)c1-c1ccc2c(c1)C(C1CCCCC1)(N1CCCC(O)C1)C(=O)N2 (centres unmarked) [Compound 2.32, 3-cyclohexyl-5-(3,5-dimethylisoxazol-4-yl)-3-(3-hydroxypiperidin-1-yl)indolin-2-one] are within 0.2 log units of each other in pIC50: 7.21 for the first, 7.22 for the second.

Going from Cc1noc(C)c1-c1ccc2c(c1)C(C1CCCCC1)(N1CCC(O)CC1)C(=O)N2 (centres unmarked) [Compound 2.31, 3-cyclohexyl-5-(3,5-dimethylisoxazol-4-yl)-3-(4-hydroxypiperidin-1-yl)indolin-2-one] to Cc1noc(C)c1-c1ccc2c(c1)C(C1CCCCC1)(N1CC(O)C1)C(=O)N2 (centres unmarked) [Compound 2.33, 3-cyclohexyl-5-(3,5-dimethylisoxazol-4-yl)-3-(3-hydroxyazetidin-1-yl)indolin-2-one], the pIC50 falls from 7.43 to 6.92 (0.51 log units). The first is the more potent here.

Cc1noc(C)c1-c1ccc2c(c1)C(c1ccccc1)(N1CC[C@@H](NC(=O)OC(C)(C)C)C1)C(=O)N2 (some centres unmarked) [Compound 2.41, Tert-butyl (3r)-1-(5-(3,5-dimethylisoxazol-4-yl)-2-oxo-3-phenylindolin-3-yl)pyrrolidin-3-ylcarbamate] and Cc1noc(C)c1-c1ccc2c(c1)C(c1ccccc1)(N1CCC[C@@H](NC(=O)OC(C)(C)C)C1)C(=O)N2 (some centres unmarked) [Compound 2.43] are within 0.2 log units of each other in pIC50: 6.36 for the first, 6.29 for the second.

First: Cc1noc(C)c1-c1ccc2c(c1)C(c1ccccc1)(N1CCC[C@H](NC(=O)OC(C)(C)C)C1)C(=O)N2 (some centres unmarked) [Compound 2.44, Tert-butyl (3s)-1-(5-(3,5-dimethylisoxazol-4-yl)-2-oxo-3-phenylindolin-3-yl)piperidin-3-ylcarbamate]
Second: Cc1noc(C)c1-c1ccc2c(c1)C(c1ccccc1)(N1CCC[C@@H](N)C1)C(=O)N2 (stereo partly drawn) [Compound 2.45, 3-((R)-3-aminopiperidin-1-yl)-5-(3,5-dimethylisoxazol-4-yl)-3-phenylindolin-2-one]
The pIC50 of the first is 1.63 log units lower: 5.96 for the first, 7.59 for the second.

Work on CCOC(=O)CN1CCN(C2(c3ccccc3)C(=O)Nc3ccc(-c4c(C)noc4C)cc32)CC1 (centres unmarked) [Compound 2.47, Ethyl 2-(4-(5-(3,5-dimethylisoxazol-4-yl)-2-oxo-3-phenylindolin-3-yl)piperazin-1-yl)acetate] yielded a pIC50 of 7.27.
